In patent US12070036B2, “Methods and compositions comprising nematode signalling compounds” (PHERONYM, INC., priority 2018, dated 2024):

Tested on: RKN J2
Assay: RKN J2 dispersal away from the pheromone application site
Format: in vivo, Meloidogyne spp.
Conditions: for activity as a repellent (in words): single ascarosides vs presented together
Protocol: FIG. 2. RKN J2 responds to pheromones purified from S. carpocapsae growth medium within 2 hours. The 57% MeOH extraction only contains one pheromone, ascr #10, which is also secreted by RKN. […] The 73% MeOH extraction includes both ascr #10 and ascr #18. Both of these pheromones are released by RKN J2. We can already see a synergy and recognition and 15% more J2 left the pheromone application spot due to recognition of the pheromone signals. […] The figure is representative of the 2 independent experiments repeated in time and each experiment has 6 independent replications.
FIG. 3. RKN J2 response to pheromones extracted from S. feltiae growth medium within 2 h of exposure. Control has only water. Pheromones resuspended in water. The experiment has 5 independent replications.
We extracted the pheromones with 58% and 73% Methyl alcohol using S. carpocapsae insect host cadavers, the growth medium for S. carpocapsae. Then the extracts were dried and re-suspended in MILLIQ water. Centrifuged at 6000 r.c.f. to remove insoluble material and then dried using a speed vac. […] This particular fraction only included one ascaroside, ascr #10, common between RKN and S. carpocapsae. […] The 73% MeOH extract contained two common pheromones, ascr #10 and ascr #18, between RKN and S. carpocapsae. The two pheromones together caused 15% more RKN J2 to move away from the application site compared to water control.
We tested this with one more Steinernema species growth medium. We extracted the pheromones using 70% MeOH from the S. feltiae growth medium (insect host cadavers). This particular extraction contains the two common ascarosides, ascr #10 and ascr #18, between RKN and Steinernema species.
Since ascr #10 and […] are the only common ascarosides between Steinernema and RKN species, we looked at other species that release ascarosides that RKN J2 release.

Compound | RKN J2 response to pheromones (in words) (RKN J2, within 2 hours, vs water control) | activity as a repellent (in words)
C[C@H](CCCCCCC(=O)O)O[C@@H]1O[C@@H](C)[C@H](O)C[C@H]1O [ascr #10] | did not elicit any response | not active
C[C@H](CCCCCCCCC(=O)O)O[C@@H]1O[C@@H](C)[C@H](O)C[C@H]1O [ascr #18] | – | not active
